Settings: PEG-stabilized DSPC/Chol/PEG(2000)-DSPE liposome formulation (40 mg/ml total lipid, 12 mg/ml WSA1); buffer and serum; 48h incubation at 37° C.
Description: The liposomes are loaded by use of citric acid pH-gradient. Liposomes are prepared in 500 mM citrate buffer with pH 4.0 The external medium is titrated to pH 7.7 with sodium carbonate. WSA is thereafter added and allowed to load for 20 minutes at 60° C. The final formulation contains 40 mg/ml of total lipid and 12 mg/ml of WSA1 which corresponds to about 1×10^5 WSA, or 1×10^6 10 B, per liposome.

## 1,8-diamino-4-N-3- [12-(N-9-acridinyl-3-aminopropyl)-p-carborane-1-yl] propyl-4-azooctane hydrogen chloride [WSA1]
  encapsulated WSA 1 released: less than 15%

Reference: patent US6562316B1, “Drug delivery system with two-step targeting” (priority 1997, dated 2003)
